Tests used:
Format in all cases: cell-based, human
HL-60(TB) = assay: NCI-60 five-dose assay; settings: HL-60(TB), Leukemia
ACHN = assay: NCI-60 five-dose assay; settings: ACHN, Renal Cancer
LOX IMVI = assay: NCI-60 five-dose assay; settings: LOX IMVI, Melanoma
IGROV1 = assay: NCI-60 five-dose assay; settings: IGROV1, Ovarian Cancer
HOP-62 = assay: NCI-60 five-dose assay; settings: HOP-62, Non-Small Cell Lung Cancer
786-0 = assay: NCI-60 five-dose assay; settings: 786-0, Renal Cancer
MDA-MB-468 = assay: NCI-60 five-dose assay; settings: MDA-MB-468, Breast Cancer
HCT-116 = assay: NCI-60 five-dose assay; settings: HCT-116, Colon Cancer
UACC-62 = assay: NCI-60 five-dose assay; settings: UACC-62, Melanoma
SK-MEL-28 = assay: NCI-60 five-dose assay; settings: SK-MEL-28, Melanoma
BT-549 = assay: NCI-60 five-dose assay; settings: Homo sapiens, BT-549, Breast Cancer
SN12C = assay: NCI-60 five-dose assay; settings: SN12C, Renal Cancer
Breast Cancer subpanel = assay: NCI-60 five-dose assay, subpanel; settings: Breast Cancer
Colon Cancer subpanel = assay: NCI-60 five-dose assay, subpanel; settings: Colon Cancer
UACC-257 = assay: NCI-60 five-dose assay; settings: UACC-257, Melanoma
Prostate Cancer subpanel = assay: NCI-60 five-dose assay, subpanel; settings: Prostate Cancer
MCF7 = assay: NCI-60 five-dose assay; settings: MCF7, Breast Cancer
SF-539 = assay: NCI-60 five-dose assay; settings: SF-539, CNS Cancer
SK-MEL-5 = assay: NCI-60 five-dose assay; settings: SK-MEL-5, Melanoma
[1] = test system: Non-Small Cell Lung Cancer subpanel; assay: NCI-60 five-dose assay, subpanel; settings: Non-Small Cell Lung Cancer
SNB-19 = assay: NCI-60 five-dose assay; settings: SNB-19, CNS Cancer
OVCAR-3 = assay: NCI-60 five-dose assay; settings: OVCAR-3, Ovarian Cancer
RXF 393 = assay: NCI-60 five-dose assay; settings: RXF 393, Renal Cancer
U251 = assay: NCI-60 five-dose assay; settings: U251, CNS Cancer
PC-3 = assay: NCI-60 five-dose assay; settings: PC-3, Prostate Cancer
[2] = Homo sapiens, read-out: GI50 Conc. per Cell Line
[3] = Homo sapiens, read-out: LC50 (the source's name)
[4] = Homo sapiens, average sensitivity of all subpanel cell lines, read-out: GI50 Subpanel MID b

Q: What does the source list for `COc1ccc(C=NNC(=O)c2ccc3[nH]c(-c4ccc(Cl)cc4)nc3c2)cc1` [Compound 4g, N′-(4-Methoxybenzylidene)-2-(4-chlorophenyl)-1H-benzimidazole-5-carbohydrazide]?
A: TGI (HL-60(TB)): >100 µM; GI50 (HL-60(TB); [2]): 1.3 µM; CC50 (HL-60(TB); [3]): > 100 µM; TGI (ACHN): 5.04 µM; GI50 (ACHN; [2]): 2 µM; CC50 (ACHN; [3]): 16.9 µM; GI50 (LOX IMVI; [2]): 2.19 µM; CC50 (LOX IMVI; [3]): 7.34 µM; TGI (LOX IMVI): 4.01 µM; GI50 (IGROV1; Homo sapiens, IGROV-1, read-out: GI50 Conc. per Cell Line): 1.65 µM; CC50 (IGROV1; Homo sapiens, IGROV-1, read-out: LC50 (the source's name)): 9.57 µM; TGI (IGROV1): 3.97 µM; TGI (HOP-62): 6.37 µM; GI50 (HOP-62; [2]): 1.88 µM; CC50 (HOP-62; [3]): 53.6 µM; TGI (786-0): 3.67 µM; GI50 (786-0; [2]): 1.93 µM; CC50 (786-0; [3]): 6.98 µM; LC50 (concentration killing 50% of cells) (MDA-MB-468; Homo sapiens): 12.6 µM; GI50 (MDA-MB-468; [2]): 1.94 µM; TGI (MDA-MB-468): 4.55 µM; TGI (HCT-116): 5.12 µM; GI50 (HCT-116; [2]): 2.14 µM; CC50 (HCT-116; [3]): 18.9 µM; GI50 (UACC-62; [2]): 1.94 µM; CC50 (UACC-62; [3]): 10.9 µM; TGI (UACC-62): 4.47 µM; GI50 (SK-MEL-28; [2]): 1.79 µM; CC50 (SK-MEL-28; [3]): 6.35 µM; TGI (SK-MEL-28): 3.37 µM; GI50 (BT-549; read-out: GI50 Conc. per Cell Line): 3.36 µM; CC50 (BT-549; read-out: LC50 (the source's name)): > 100 µM; GI50 (SN12C; [2]): 2.46 µM; CC50 (SN12C; [3]): 33.9 µM; TGI (SN12C): 6.79 µM; GI50 Selectivity Ratio (MID a/MID b) (Breast Cancer subpanel): 1.12; GI50 (Breast Cancer subpanel; [4]): 2.24 µM; GI50 Selectivity Ratio (MID a/MID b) (Colon Cancer subpanel): 0.96; GI50 (Colon Cancer subpanel; [4]): 2.63 µM; GI50 (UACC-257; [2]): 3.27 µM; CC50 (UACC-257; [3]): 60 µM; TGI (UACC-257): 10.10 µM; GI50 (Prostate Cancer subpanel; [4]): 1.81 µM; GI50 Selectivity Ratio (MID a/MID b) (Prostate Cancer subpanel): 1.39; GI50 (MCF7; [2]): 1.47 µM; CC50 (MCF7; [3]): 10 µM; TGI (MCF7): 3.84 µM; GI50 (SF-539; [2]): 1.73 µM; CC50 (SF-539; [3]): 6.92 µM; TGI (SF-539): 3.46 µM; GI50 (SK-MEL-5; [2]): 1.89 µM; CC50 (SK-MEL-5; [3]): 7.95 µM; TGI (SK-MEL-5): 3.88 µM; GI50 [1, 4]: 2.71 µM; GI50 Selectivity Ratio (MID a/MID b) [1]: 0.93; GI50 (SNB-19; [2]): 3.13 µM; CC50 (SNB-19; [3]): 49.6 µM; TGI (SNB-19): 7.95 µM; GI50 (OVCAR-3; [2]): 2.28 µM; CC50 (OVCAR-3; [3]): 16 µM; TGI (OVCAR-3): 5.14 µM; GI50 (RXF 393; [2]): 1.86 µM; CC50 (RXF 393; [3]): 7.76 µM; TGI (RXF 393): 3.80 µM; GI50 (U251; Homo sapiens, U-251, read-out: GI50 Conc. per Cell Line): 2.43 µM; CC50 (U251; Homo sapiens, U-251, read-out: LC50 (the source's name)): 30.4 µM; TGI (U251): 5.22 µM; LC50 (PC-3; Homo sapiens): 8.55 µM; GI50 (PC-3; [2]): 1.65 µM; TGI (PC-3): 3.76 µM
